Measurements taken from patent US20120115869A1, “TETRAZOLE DERIVATIVES” (MERCK SERONO S.A., priority 2009, published 2012).

Key:
CRTH2 (DP2) = target: T1, CRTH2 (DP2) (Homo sapiens, UniProt Q9Y5Y4); test: Radioligand binding Scintillation Proximity Assay ([3H]PGD2, hCRTH2-CHO cell membranes); details: 1.5 nM [3H]PGD2, hCRTH2-CHO cell membranes, SPA
T1 construct: host or cells: CHO cells
T1 sequence (Q9Y5Y4 1-395): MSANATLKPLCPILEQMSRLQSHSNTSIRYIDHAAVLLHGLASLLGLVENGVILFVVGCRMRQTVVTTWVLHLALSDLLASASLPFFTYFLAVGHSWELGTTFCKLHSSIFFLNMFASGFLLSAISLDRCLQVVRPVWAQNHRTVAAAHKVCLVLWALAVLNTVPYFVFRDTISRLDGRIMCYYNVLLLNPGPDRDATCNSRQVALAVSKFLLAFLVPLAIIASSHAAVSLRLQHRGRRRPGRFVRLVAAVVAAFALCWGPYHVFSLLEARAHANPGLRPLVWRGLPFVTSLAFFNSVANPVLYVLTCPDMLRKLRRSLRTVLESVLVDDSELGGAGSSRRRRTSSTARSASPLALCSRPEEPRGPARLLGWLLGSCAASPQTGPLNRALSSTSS
Method in brief: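 Membranes from CHO cells stably expressing human CRTH2, made by nitrogen cavitation and differential centrifugation. Compounds competed with [3H]PGD2 at 1% DMSO for 90 min with agitation at room temperature. Non-specific binding taken with 10 μM PGD2.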

CRTH2 [1] = target: T2, CRTH2 (Homo sapiens, UniProt Q9Y5Y4); test: [35S]GTPγS binding assay on CHO-CRTH2 cell membranes; format: biochemical; details: for Emax: without addition of PGD2, 100% of Emax being the activity measured by the addition of 1 μM of PGD2
T2 construct: expressed in transfected cells; host or cells: CHO cells
T2 sequence (Q9Y5Y4 1-395): T1 sequence (Q9Y5Y4 1-395)
Experimental: Adherent CHO cells expressing hCRTH2 (Euroscreen, Belgium) were cultured in 225 cm^2 cell culture flasks (Corning, USA) in 30 ml of medium. After two rinses of phosphate buffered saline (PBS), cells were harvested in 10 ml of PBS containing 1 mM EDTA, centrifuged at 500×g for 5 min at 4° C. and frozen at −80° C. The pellet was re-suspended in 50 mM Tris-HCl, pH 7.4, 2 mM EDTA, 250 mM Sucrose, containing protease inhibitor cocktail tablets, (Complete EDTA-free, Roche, Germany) and incubated 30 min at 4° C. Cells were disrupted by nitrogen cavitation (Parr Instruments, USA) at 4° C. (800 p.s.i. for 30 min), and centrifuged at 500×g for 10 min at 4° C. Pellet containing nuclei and cellular debris was discarded and supernatant was centrifuged 60 min at 4° C. at 45000×g. Membrane pellet was re-suspended in storage buffer (10 mM HEPES/KOH pH 7.4, 1 mM EDTA, 250 mM sucrose, protease inhibitor cocktail tablets) using Dounce homogenization and frozen in liquid nitrogen, and stored at 80° C.
The [^35S]GTPγS assay measures the increase in guanine nucleotide exchange at G-proteins in cell membranes, resulting from agonist (PGD2) binding to CRTH2. […] Briefly, Compounds of Formula (I) are incubated in 96-well scintillating white polystyrene plates (Perkin Elmer, USA) in a final volume of 200 μl containing 20 mM HEPES/KOH pH 7.4, 3 mM MgCl2, 10 μg/ml Saponin, 5 μM GDP, 75 mM NaCl and 2% of dimethylsulphoxide (DMSO). […] After 60 min incubation at 30° C., reaction is stopped by centrifugation at 700×g, at 4° C. for 10 minutes and supernatant is removed. […] For IC50 determination, increasing concentrations of compounds are incubated in presence of a fixed concentration of PGD2 (EC80). For EC50 measurements, compounds are incubated without addition of PGD2. Basal [^35S]GTPγS activity is determined without addition of any ligands or compounds. 100% [^35S]GTPγS activity is measured by the addition of 1 μM of PGD2.

CRTH2 [2] = target: T2, CRTH2; test: Cellular Dielectric Spectroscopy in CHO-CRTH2 cells; format: cell-based; details: for EC50: agonist activity without PGD2, read-out: EC50(μM) (CDS, partial agonist); for Emax: agonist activity without PGD2, read-out: EMax (CDS, partial agonist); for IC50: fixed concentration of PGD2 (EC80), read-out: IC50(μM) (CDS, antagonist)
Experimental: Cellular Dielectric Spectroscopy (CDS) is a label-free technology based on the measurement of complex impedance changes (delta Z or dZ). Impedance (Z) is related to the ratio of voltage to current as described by Ohm's law (Z=V/I). In order to measure the changes in impedance that occur in response to receptor stimulation, mammalian cells are seeded onto a custom 96-well microtiter plate that contains electrodes at the bottom of each well Key contributors to the impedance measurements are changes in cell-substrate adherence, changes in cell shape and volume, and changes in cell-cell interactions. These factors individually or collectively affect the flow of current, influencing the magnitude and characteristics of the signal measured. G-protein coupled receptors ligand-induced activity can be measured using this technology and specific G protein coupling can be identified. Activities of reference agonist and antagonist molecules of CRTH2 have been measured using this assay and similar results were obtained compared to different functional assays.
CHO—CRTH2 cells are cultured in HAM's F12 (Lonza, Switzerland) supplemented with 10% foetal calf serum (PAA, Australia) and 400 μg/ml Geneticin. 100000 cells/well are seeded in standard 96 W Microplates (MDS Analytical Technologies) and incubated at 37° C. in 5% CO2 for 24 hours. Cells are washed twice with 135 μl of cell key buffer (Hank's Balanced Salt Solution 1× (HBSS) (Invitrogen) supplemented with 10 mM HEPES pH 7.4 in presence of 1% DMSO). […] Results are expressed as the amplitude between the highest and the lowest signal produced (max-min). Basal and maximum activities are measured, respectively in absence or presence of PGD2 (EC80).

## CCCCC(=O)N(Cc1ccc(OC)cc1)c1cc(F)cc(-c2nnn[nH]2)c1 [Example 38, N-[3-fluoro-5-(1H-tetrazol-5-yl)phenyl]-N-(4-methoxybenzyl)pentanamide]
other
  melting point: 122 to 125 °C
CRTH2 (DP2)
  IC50: 3.6 nM

## CCC(=O)N(Cc1ccc(-c2c(C)cccc2C)cc1)c1cc(F)cc(-c2nnn[nH]2)c1 [Example 100]
CRTH2 (DP2)
  IC50: 8.3 nM
CRTH2 [1]
  Emax: -16.7%

## CCC(=O)N(Cc1cccc(OC)c1)c1cc(F)cc(-c2nnn[nH]2)c1 [Example 39, N-[3-fluoro-5-(1H-tetrazol-5-yl)phenyl]-N-(3-methoxybenzyl)propanamide]
CRTH2 (DP2)
  IC50: 9.6 nM
CRTH2 [1]
  Emax: -11.2%

## CCCCC(=O)N(Cc1ccc(OC(F)(F)F)c(Cl)c1)c1cc(F)cc(-c2nnn[nH]2)c1 [Example 54, N-[3-chloro-4-(trifluoromethoxy)benzyl]-N-[3-fluoro-5-(1H-tetrazol-5-yl)phenyl]pentanamide]
other
  melting point: 137 °C
CRTH2 (DP2)
  IC50: 15 nM
CRTH2 [1]
  Emax: -12.6%

## CCC(=O)N(Cc1cccc(O)c1)c1cc(F)cc(-c2nnn[nH]2)c1 [Example 84, N-[3-fluoro-5-(1H-tetrazol-5-yl)phenyl]-N-(3-hydroxybenzyl)propanamide]
CRTH2 [1]
  Emax: -17.1%

## CCC(=O)N(Cc1ccc(S(C)(=O)=O)cc1)c1cc(F)cc(-c2nnn[nH]2)c1 [Example 78, N-[3-fluoro-5-(1H-tetrazol-5-yl)phenyl]-N-[4-(methylsulfonyl)benzyl]propanamide]
CRTH2 (DP2)
  IC50: 3.5 nM
CRTH2 [1]
  Emax: 19%
CRTH2 [2]
  EC50: 0.0011 µM
  Emax: 42%
  IC50: 0.014 µM

## CS(=O)(=O)c1ccc(CN(C(=O)c2ccccc2)c2cc(F)cc(-c3nnn[nH]3)c2)cc1 [Example 108, N-[3-fluoro-5-(1H-tetrazol-5-yl)phenyl]-N-[4-(methylsulfonyl)benzyl]benzamide]
CRTH2 (DP2)
  IC50: 2.6 nM
CRTH2 [1]; in presence of a fixed concentration of PGD2 (EC80), read-out: IC50 ([35S]GTPγS, antagonist)
  IC50: 22.4 nM
CRTH2 [1]
  Emax: -10.1%
CRTH2 [2]
  IC50: 0.049 µM

## CCC(=O)N(Cc1ccc(OC)cc1)c1cc(F)cc(-c2nnn[nH]2)c1 [Example 41, N-[3-fluoro-5-(1H-tetrazol-5-yl)phenyl]-N-(4-methoxybenzyl)propanamide]
other
  melting point: 158 to 160 °C
CRTH2 (DP2)
  IC50: 9 nM

## CCCC(=O)N(Cc1ccc(OC(F)(F)F)cc1)c1cc(Cl)cc(-c2nnn[nH]2)c1 [Example 55, N-[3-chloro-5-(1H-tetrazol-5-yl)phenyl]-N-[4-(trifluoromethoxy)benzyl]butanamide]
other
  melting point: 179 °C
CRTH2 (DP2)
  IC50: 16 nM
CRTH2 [1]
  Emax: -13.5%

## CCCCC(=O)N(Cc1cccc(OC)c1)c1cc(F)cc(-c2nnn[nH]2)c1 [Example 37, N-[3-fluoro-5-(1H-tetrazol-5-yl)phenyl]-N-(3-methoxybenzyl)pentanamide]
other
  melting point: 118 to 120 °C
CRTH2 (DP2)
  IC50: 3.6 nM

## CC(C)CC(=O)N(Cc1ccc(S(C)(=O)=O)cc1)c1cc(F)cc(-c2nnn[nH]2)c1 [Example 104, N-[3-fluoro-5-(1H-tetrazol-5-yl)phenyl]-3-methyl-N-[4-(methylsulfonyl)benzyl]butanamide]
CRTH2 (DP2)
  IC50: 3.7 nM
CRTH2 [2]
  EC50: 0.0011 µM
  Emax: 27%

## COCCC(=O)N(Cc1ccc(OC(F)(F)F)cc1)c1cc(Cl)cc(-c2nnn[nH]2)c1 [Example 68, N-[3-chloro-5-(1H-tetrazol-5-yl)phenyl]-3-methoxy-N-[4-(trifluoromethoxy)benzyl]propanamide]
other
  melting point: 146 to 151 °C
CRTH2 (DP2)
  IC50: 7.4 nM

## CS(=O)(=O)c1ccc(CN(C(=O)C2CCCC2)c2cc(F)cc(-c3nnn[nH]3)c2)cc1 [Example 105, N-[3-fluoro-5-(1H-tetrazol-5-yl)phenyl]-N-[4-(methylsulfonyl)benzyl]cyclopentanecarboxamide]
CRTH2 (DP2)
  IC50: 6.2 nM
CRTH2 [2]
  EC50: 0.0024 µM
  Emax: 22%

## CCCCC(=O)N(Cc1cccn1S(=O)(=O)c1ccccc1)c1cc(-c2nnn[nH]2)ccc1F [Example 4, N-[2-fluoro-5-(1H-tetrazol-5-yl)phenyl]-N-{[1-(phenylsulfonyl)-1H-pyrrol-2-yl]methyl}pentanamide]
CRTH2 (DP2)
  IC50: 51 nM
CRTH2 [2]
  IC50: 0.22 µM

## CCC(=O)N(Cc1cccc(-c2ccccc2)c1)c1cccc(-c2nnn[nH]2)c1 [Example 59, N-(biphenyl-3-ylmethyl)-N-[3-(1H-tetrazol-5-yl)phenyl]propanamide]
other
  melting point: 91 °C
CRTH2 (DP2)
  IC50: 230 nM

## CS(=O)(=O)c1ccc(CN(C(=O)Cc2ccccc2)c2cc(F)cc(-c3nnn[nH]3)c2)cc1 [Example 109, N-[3-fluoro-5-(1H-tetrazol-5-yl)phenyl]-N-[4-(methylsulfonyl)benzyl]-2-phenylacetamide]
CRTH2 (DP2)
  IC50: 1 nM
CRTH2 [2]
  EC50: 0.0012 µM
  Emax: 32%

## CCC(=O)N(Cc1ccc2ccccc2n1)c1cc(F)cc(-c2nnn[nH]2)c1 [Example 80, N-[3-fluoro-5-(1H-tetrazol-5-yl)phenyl]-N-(quinolin-2-ylmethyl)propanamide]
CRTH2 (DP2)
  IC50: 65 nM

## CCCCC(=O)N(Cc1ccc(OC)cc1)c1cccc(-c2nnn[nH]2)c1 [Example 14, N-(4-methoxybenzyl)-N-[3-(1H-tetrazol-5-yl)phenyl]pentanamide]
CRTH2 (DP2)
  IC50: 61 nM

## CC(C)CC(=O)N(Cc1ccc2c(c1)OCCO2)c1cc(-c2nnn[nH]2)ccc1F [Example 7, N-(2,3-dihydro-1,4-benzodioxin-6-ylmethyl)-N-[2-fluoro-5-(1H-tetrazol-5-yl)phenyl]-3-methylbutanamide]
CRTH2 (DP2)
  IC50: 7.1 nM

## CCC(=O)N(Cc1cccc(C#CCO)c1)c1cccc(-c2nnn[nH]2)c1 [Example 48, N-[3-(3-hydroxyprop-1-yn-1-yl)benzyl]-N-[3-(1H-tetrazol-5-yl)phenyl]propanamide]
CRTH2 (DP2)
  IC50: 1270 nM

## CCC(=O)N(Cc1ccc(-c2cccc(S(=O)(=O)N3CCOCC3)c2)cc1)c1cc(F)cc(-c2nnn[nH]2)c1 [Example 91, N-[3-fluoro-5-(1H-tetrazol-5-yl)phenyl]-N-{[3′-(morpholin-4-ylsulfonyl)biphenyl-4-yl]methyl}propanamide]
CRTH2 (DP2)
  IC50: 145 nM

## CCC(=O)N(Cc1ccc(-c2ccccc2OC)cc1)c1cc(F)cc(-c2nnn[nH]2)c1 [Example 99, N-[3-fluoro-5-(1H-tetrazol-5-yl)phenyl]-N-[(2′-methoxybiphenyl-4-yl)methyl]propanamide]
CRTH2 (DP2)
  IC50: 13 nM
